Measured values from ChEMBL document CHEMBL3638409, “Cycloalkane carboxylic acid derivatives as CXCR3 receptor antagonists” (2015).

biological target: T1, C-X-C chemokine receptor type 3 (Homo sapiens, UniProt P49682); experiment: Competition Radioligand Binding Assay: Competition radioligand binding assays were performed to determine the in vitro potency of the newly synthesized, unlabeled test compounds to displace the specific binding of the radiolabelled endogenous chemokine, 125I-CXCL10, from the human CXCR3-A receptor. IC50 values were determined for the test compounds and used to explore the structure-activity relationships (SAR).
T1 sequence (P49682 whole entry): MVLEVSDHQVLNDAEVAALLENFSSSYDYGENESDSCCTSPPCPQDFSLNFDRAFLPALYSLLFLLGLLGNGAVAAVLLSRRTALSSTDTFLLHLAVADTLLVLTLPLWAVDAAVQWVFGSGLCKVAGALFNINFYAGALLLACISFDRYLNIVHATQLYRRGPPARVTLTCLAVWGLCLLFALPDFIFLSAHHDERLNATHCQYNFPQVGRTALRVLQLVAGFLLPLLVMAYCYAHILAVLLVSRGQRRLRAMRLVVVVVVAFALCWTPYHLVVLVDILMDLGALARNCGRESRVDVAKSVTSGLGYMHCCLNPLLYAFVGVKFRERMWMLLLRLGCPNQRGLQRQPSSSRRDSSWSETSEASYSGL

IC50 | Structure (SMILES)
58 nM | COc1cc(CN(C2CC(C(=O)O)C2)C(C)c2ccc3c(c2)CCO3)ccc1OCCN1C(=O)CCC1=O (centres undefined)
81 nM | COc1cc(CN(C[C@H]2CC[C@H](C(=O)O)CC2)C(C)c2ccc3c(c2)CCO3)ccc1CCCN1C(=O)CCC1=O (some centres undefined)
431 nM | Cc1cc(CN(C[C@H]2CC[C@H](C(=O)O)CC2)C(C)c2ccc(Cl)c(Cl)c2)ccc1OCCN1C(=O)CN(C)C1=O (some centres undefined)
1200 nM | CN1CC(=O)N(CCOc2ccc(CN(C[C@H]3CC[C@H](C(=O)O)CC3)C3CCc4cc(Cl)ccc43)cc2Cl)C1=O (some centres undefined)
